According to the supplement of paper PMC10307832:

Key:
Experiment in all cases: relative viability (nuclei count vs DMSO), 5 days (fraction); higher = more cells survive
[1] = compound: C1CC1C(=O)NC2=NNC3=C2C=CC(=C3)C4=CC(=CC=C4)C(=O)NC5CC5 [XMD13-2] + CS(=O)(=O)N1CCN(Cc2cc3nc(-c4cccc5[nH]ncc45)nc(N4CCOCC4)c3s2)CC1 [Pictilisib] (partner 1 µM)
In short: (§1)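 Relative viability divides the nuclei count in treated wells by that in vehicle wells. Lung cancer cell lines were seeded in 1536-well plates, dosed by pin tool the next day, and fixed and stained after 5 days in one step with final 0.05% Triton X-100, 1% formaldehyde and 1 ug/ml Hoechst. Dosing was a single drug or a fixed anchor-drug dose plus five library-drug doses (not always all listed) in √10 steps, and values are medians of duplicate plates imaged at 4×.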

[2] = compound: Cc1ccc(C(=O)Nc2cccc(C(F)(F)F)c2)cc1Nc1cncc(C(N)=O)c1 [ALW-II-49-7] + Nc1nc2[nH]cc(CCc3ccc(C(=O)N[C@@H](CCC(=O)O)C(=O)O)cc3)c2c(=O)[nH]1 [Pemetrexed] (partner 0.2 µM)
In short: as §1

[3] = compound: Cc1nc(Nc2ncc(C(=O)Nc3c(C)cccc3Cl)s2)cc(N2CCN(CCO)CC2)n1 [Dasatinib] + CC(=O)c1c(C)c2cnc(Nc3ccc(N4CCNCC4)cn3)nc2n(C2CCCC2)c1=O [Palbociclib] (partner 0.5 µM)
In short: as §1

[4] = compound: Cc1nc(Nc2ncc(C(=O)Nc3c(C)cccc3Cl)s2)cc(N2CCN(CCO)CC2)n1 [Dasatinib] + C[C@]1(O)C[C@@H](c2nc(-c3ccc4ccc(-c5ccccc5)nc4c3)c3c(N)nccn32)C1 [Linsitinib] (partner 1 µM)
In short: as §1

| Cell Line | relative viability ([1]; first compound 0.05 µM) | relative viability ([1]; first compound 0.1581 µM) | relative viability ([1]; first compound 0.5 µM) | relative viability ([1]; first compound 1.581 µM) | relative viability ([1]; first compound 5 µM) | relative viability ([2]; first compound 0.08 µM) | relative viability ([2]; first compound 0.253 µM) | relative viability ([2]; first compound 0.8 µM) | relative viability ([2]; first compound 2.53 µM) | relative viability ([2]; first compound 8 µM) | relative viability ([3]; first compound 0.005 µM) | relative viability ([3]; first compound 0.01581 µM) | relative viability ([3]; first compound 0.05 µM) | relative viability ([3]; first compound 0.1581 µM) | relative viability ([3]; first compound 0.5 µM) | relative viability ([4]; first compound 0.005 µM) | relative viability ([4]; first compound 0.01581 µM) | relative viability ([4]; first compound 0.05 µM) | relative viability ([4]; first compound 0.1581 µM) | relative viability ([4]; first compound 0.5 µM) |
| --- | --- | --- | --- | --- | --- | --- | --- | --- | --- | --- | --- | --- | --- | --- | --- | --- | --- | --- | --- | --- |
| COR-L 105 | 0.398 | 0.361 | 0.437 | 0.458 | 0.335 | 1.16 | 1.06 | 1.21 | 0.959 | 0.974 | 0.429 | 0.363 | 0.368 | 0.371 | 0.275 | 0.753 | 0.522 | 0.689 | 0.366 | 0.263 |
| LCLC-97TM1 | 0.297 | 0.187 | 0.13 | 0.148 | 0.123 | 0.147 | 0.161 | 0.176 | 0.16 | 0.148 | 0.203 | 0.227 | 0.246 | 0.2 | 0.13 | 0.17 | 0.203 | 0.2 | 0.163 | 0.129 |
| NCI-H520 | 0.318 | 0.299 | 0.313 | 0.275 | 0.251 | 0.655 | 0.673 | 0.724 | 0.666 | 0.558 | 0.172 | 0.156 | 0.131 | 0.1 | 0.119 | 0.719 | 0.598 | 0.453 | 0.249 | 0.19 |
| NCI-H1993 | 0.846 | 0.783 | 0.781 | 0.937 | 0.845 | 0.61 | 0.515 | 0.631 | 0.591 | 0.64 | 0.65 | 0.623 | 0.622 | 0.662 | 0.373 | 0.61 | 0.756 | 0.675 | 0.629 | 0.597 |
| NCI-H1437 | 0.522 | 0.454 | 0.601 | 0.509 | 0.382 | 0.324 | 0.328 | 0.345 | 0.311 | 0.243 | 0.353 | 0.331 | 0.335 | 0.302 | 0.277 | 1.02 | 1.03 | 1.09 | 0.859 | 0.377 |
| LC-2-ad | 0.533 | 0.352 | 0.569 | 0.413 | 0.332 | 0.249 | 0.258 | 0.273 | 0.229 | 0.267 | 0.515 | 0.471 | 0.477 | 0.299 | 0.159 | 0.685 | 0.702 | 0.6 | 0.26 | 0.176 |
| HARA | 0.372 | 0.394 | 0.493 | 0.314 | 0.23 | 0.235 | 0.288 | 0.247 | 0.277 | 0.218 | 0.303 | 0.243 | 0.155 | 0.177 | 0.114 | 0.971 | 0.67 | 0.516 | 0.247 | 0.189 |
| NCI-H650 | 0.921 | 0.827 | 0.924 | 0.859 | 0.801 | 0.985 | 0.962 | 0.99 | 0.917 | 0.82 | 0.307 | 0.326 | 0.343 | 0.323 | 0.261 | 0.847 | 0.941 | 0.892 | 0.416 | 0.396 |
| NCI-H522 | – | – | – | – | – | 0.909 | 0.874 | 0.958 | 1.07 | 1.01 | 1.1 | 0.802 | 0.985 | 0.773 | 0.722 | – | – | – | – | – |
| ABC-1 | 0.946 | 0.744 | 0.706 | 0.791 | 0.3 | – | – | – | – | – | 0.625 | 0.5 | 0.662 | 0.524 | 0.688 | 0.743 | 0.704 | 0.592 | 0.452 | 0.49 |
| NCI-H1563 | 0.581 | 0.665 | 0.737 | 0.651 | 0.605 | 0.73 | 0.732 | 0.718 | 0.811 | 0.713 | – | – | – | – | – | 0.961 | 0.794 | 0.779 | 0.761 | 0.601 |
| NCI-H1703 | 0.296 | 0.262 | 0.267 | 0.237 | 0.193 | – | – | – | – | – | – | – | – | – | – | 0.139 | 0.29 | 0.247 | 0.0903 | 0.144 |
| NCI-H2170 | 0.349 | 0.33 | 0.338 | 0.275 | 0.247 | 0.283 | 0.275 | 0.244 | 0.302 | 0.285 | 0.377 | 0.394 | 0.397 | 0.288 | 0.204 | – | – | – | – | – |
| NCI-H727 | 0.421 | 0.321 | 0.36 | 0.527 | 0.551 | – | – | – | – | – | 0.553 | 0.455 | 0.523 | 0.388 | 0.281 | 0.233 | 0.249 | 0.262 | 0.13 | 0.152 |
| NCI-H1648 | – | – | – | – | – | 0.579 | 0.934 | 0.802 | 0.52 | 0.738 | 0.281 | 0.29 | 0.334 | 0.298 | 0.243 | – | – | – | – | – |
| EBC-1 | 0.395 | 0.431 | 0.377 | 0.287 | 0.142 | – | – | – | – | – | – | – | – | – | – | 0.787 | 0.805 | 0.782 | 0.589 | 0.467 |
| NCI-H1650 | 0.687 | 0.452 | 0.644 | 0.542 | 0.541 | 0.352 | 0.379 | 0.383 | 0.378 | 0.406 | 0.282 | 0.12 | 0.184 | 0.138 | 0.177 | – | – | – | – | – |
| NCI-H1299 | 0.896 | 0.738 | 0.826 | 0.592 | 0.398 | – | – | – | – | – | – | – | – | – | – | 0.978 | 0.996 | 0.93 | 0.286 | 0.146 |
| A549 | 0.677 | 0.508 | 0.565 | 0.477 | 0.504 | – | – | – | – | – | – | – | – | – | – | 0.518 | 0.348 | 0.34 | 0.211 | 0.0589 |
| NCI-H596 | 0.447 | 0.406 | 0.351 | 0.384 | 0.411 | 0.449 | 0.47 | 0.469 | 0.503 | 0.444 | – | – | – | – | – | 0.854 | 0.828 | 0.784 | 0.449 | 0.328 |
| IA-LM | 0.387 | 0.317 | 0.339 | 0.3 | 0.179 | – | – | – | – | – | – | – | – | – | – | 0.787 | 0.732 | 0.65 | 0.712 | 0.475 |
